From US20250000864A1, “GONADOTROPIN-RELEASING HORMONE ANTAGONIST, AND PREPARATION METHOD THEREFOR AND USE THEREOF” (SHANDONG LUYE PHARMACEUTICAL CO., LTD., priority 2021, published 2025)
Where two headings read alike, the source gives them in different places.

Tests used:
[1] = Pharmacokinetics in SD rats (i.v. and i.g.); format: in vivo; conditions: for bioavailability: read-out: F (absolute bioavailability)
Experimental: Instrument: water purification equipment, Millipore; electronic balance, METTLER TOLEDO; high-speed benchtop centrifuge, Thermo; water bath thermostatic oscillator, Shanghai Yiheng Technical Co., Ltd.; vortex oscillator, Thermo; LC-MS/MS, AB SCIEX.
Method: all compounds were formulated in DMSO and 20% solutol. In the pharmacokinetic experiment, the administration dose for the intravenous group (i.v) was 1 mg/kg, and the administration dose for the intragastric group (i.g) was 12 mg/kg, each group containing 3 rats. Blood was collected from the orbit of the rats before (0 h) the administration and at set time points after administration. In the tissue distribution experiment, the rats were subjected to intragastric administration at a dose of 12 mg/kg. […] The […] in a heparinized EP tube and centrifuged at 13,500 rpm for 10 min to isolate the plasma. The pituitary was homogenized with water in a certain proportion. The plasma and pituitary homogenates were pre-treated and then analyzed by LC-MS/MS to determine the concentration of the test substances in the plasma and the pituitary. The plasma drug concentration data were processed in a non-compartmental model using WinNonlin™ Version 6.3 (Pharsight, Mountain View, CA) pharmacokinetic software.

[2] = Caco-2 two-way permeability and efflux; format: in vitro ADME; conditions: human; for Papp A→B at 120 min / Papp B→A at 120 min: Caco-2, 120 min incubation
Experimental: Instrument: water purification equipment, ELGA LabWate; biosafety cabinet, NUAIRE; thermostatic CO2 incubator, Thermo; microplate reader, PerkinElmer; LC-MS/MS, AB SCIEX.
Method: A Caco-2 monolayer cell model was used to determine the two-way permeability of the test substances and evaluate whether the test substances were transported by the efflux of a transporter. In the experiment, Caco-2 cells were seeded into a 96-well cell culture plate and cultured for 28 consecutive days for transport assay. The test substances were each administered on two sides. After being incubated for 120 min, the samples at the apical end A, at the basal end B, and with cell lysis were collected and quantitatively determined for the content of the test substances by using a liquid chromatography-tandem mass spectrometry (LC/MS/MS) method. The apparent permeability coefficient (Papp) in the direction from the apical end to the basal end (A-B) and in the direction from the basal end to the apical end (B-A) and the efflux ratio were calculated from the concentrations of the test substances.

[3] = Metabolic stability in rat liver microsomes; format: in vitro ADME, SD rat; conditions: for Residual content at 60 min / CLint scaled / half-life / microsomal CLint / CLint(liver): Rat liver microsomes; for Residual content at 60 min: NADPH, 37° C.; for CLint scaled / half-life / microsomal CLint: Sprague-Dawley (SD); for microsomal CLint: read-out: CLint(mic)
Experimental: (§1) Liver Microsome: Rat Liver Microsome and Human Liver Microsome Reagent: NADPH, Roche Diagnostics Gmbh; ACN, Merck Chemical; Tolbutamide, Sigma. Instrument: water purification equipment, Millipore; electronic balance, METTLER TOLEDO; high-speed benchtop centrifuge, Thermo; water bath thermostatic oscillator, Shanghai Yiheng Technical Co., Ltd.; vortex oscillator, Thermo; LC-MS/MS, AB SCIEX. Method: the metabolic stability of test substances was evaluated by using SD rat and human liver microsomes. The test substances were incubated with liver microsomes from different species by using NADPH under a water bath at 37° C. A cold acetonitrile solution containing a Tolbutamide internal standard substance was added at a specified time point to terminate the reaction. The samples were pre-treated and then subjected to semi-quantitative analysis by LC-MS/MS. The retention times of the analytes and Tolbutamide internal standard, the acquisition of chromatograms, and the integration of chromatograms were processed using software Analyst (A Sciex, Framingham, Massachusetts, USA). The in vitro elimination rate constant Ke of the samples was obtained by converting the ratio of the peak area of the samples to the peak area of the internal standard into the residual percentage, and the in vitro clearance rate and the half-life of the test samples were calculated.

[4] = Metabolic stability in human liver microsomes; format: in vitro ADME; conditions: for Residual content at 60 min: NADPH, 37° C.; for microsomal CLint: read-out: CLint(mic)
Experimental: as §1

human GnRHR = human GnRHR (Homo sapiens (Human), UniProt P30968); assay: In vitro antagonistic activity screening (FLIPR calcium fluorescence, Leuprolide acetate stimulation); format: cell-based; conditions: HEK293 cells stably expressing human GnRHR
Experimental: Cell: HEK293 cells stably expressing human GnRHR (WuXi AppTec (Shanghai) Co., Ltd.) Equipment: 384-well plate, Greiner; Vi-cell XR Cell Viability Analyzer, Beckman Coulter; incubator, Thermo.
Method: HEK293 cells stably expressing human GnRHR were seeded into a 384-well plate at a density of 20,000/well. Fluo-4 Direct™ No-wash Loading Buffer (Invitrogen) was added to each well the next day, and then the plate was put back into an incubator, incubated at 37° C. for 50 min, and then incubated at room temperature for 10 min. Test compounds were formulated in DMSO. […] Fluorescence values were determined using a FLIPR Tetra high throughput real-time fluorescence detection and assay system. Then 10 μL of Leuprolide acetate was added, and fluorescence values were determined. IC50 and IC90 of the compounds were calculated using Prism.

[5] = molecular target: human hERG potassium channel (Homo sapiens (Human), UniProt Q12809); assay: hERG test (QPatch automated patch clamp, CHO cells); format: cell-based
Experimental: Cell: CHO cells stably expressing a human hERG potassium channel (WuXi AppTec (Shanghai) Co., Ltd.) Reagent: physiological solution (pH=7.4): 140 mM NaCl, 4 mM KCl, 2 mM CaCl2), 1 mM MgCl2, 5 mM Glucose, 10 mM HEPES, Osmolarity: about 298 mOsm; external solution (pH=7.4): 80 mM NaCl, 4 mM KCl, 2 mM CaCl2), 1 mM MgCl2, 5 mM Glucose, 60 mM NMDG, 10 mM HEPES, Osmolarity: about 289 mOsm; internal solution (pH=7.4): 10 mM NaCl, 10 mM KCl, 110 mM KF, 10 mM HEPES, EGTA: […], Osmolarity: about 280 mOsm.
Equipment: QPatch high-throughput automated patch clamp system, Sophion.
Method: CHO cells stably expressing a human hERG potassium channel were digested with TrypLE and resuspended in a physiological solution for later use. The single-cell high-impedance sealing and whole-cell mode formation processes were automatically completed by Qpatch. The clamping voltage for the cells was −80 mV. Then a voltage of −50 mV was applied for 80 ms to subtract (current) leakage, and a voltage of +20 mV was applied for 4800 ms to open the hERG channel. The voltage was then reduced to −50 mV and maintained for 5000 ms. This process was used for data collection and analysis. Finally, the voltage was returned to the clamping voltage (−80 mV, 1000 ms). This process was repeated every 20,000 ms. 40 μL of solvent control (external solution+DMSO) was added first, and the test was performed for […] to collect baseline data. Then, 40 μL of each of the test compounds was added at various concentrations, and the test was performed for no less than […]. The compounds were each dissolved in DMSO, with test concentrations being 0.30 μM, 1.00 μM, 3.00 μM, 10.00 μM, and 30.00 μM. The IC50 data for the hERG test were obtained by analyzing using DataControl, Excel2013, and Prism.

[6] = male, rat, plasma, intravenous, i.v 1 mg/kg
[7] = male, rat, plasma, oral, i.g 12 mg/kg
[8] = male, Sprague-Dawley (SD), rat, plasma, iv, i.v 1 mg/kg
[9] = male, Sprague-Dawley (SD), rat, plasma, po, i.g 12 mg/kg
[10] = male, Sprague-Dawley (SD), rat, plasma, po, i.g 12 mg/kg vs i.v 1 mg/kg

Chain of human hERG potassium channel (Q12809 whole entry): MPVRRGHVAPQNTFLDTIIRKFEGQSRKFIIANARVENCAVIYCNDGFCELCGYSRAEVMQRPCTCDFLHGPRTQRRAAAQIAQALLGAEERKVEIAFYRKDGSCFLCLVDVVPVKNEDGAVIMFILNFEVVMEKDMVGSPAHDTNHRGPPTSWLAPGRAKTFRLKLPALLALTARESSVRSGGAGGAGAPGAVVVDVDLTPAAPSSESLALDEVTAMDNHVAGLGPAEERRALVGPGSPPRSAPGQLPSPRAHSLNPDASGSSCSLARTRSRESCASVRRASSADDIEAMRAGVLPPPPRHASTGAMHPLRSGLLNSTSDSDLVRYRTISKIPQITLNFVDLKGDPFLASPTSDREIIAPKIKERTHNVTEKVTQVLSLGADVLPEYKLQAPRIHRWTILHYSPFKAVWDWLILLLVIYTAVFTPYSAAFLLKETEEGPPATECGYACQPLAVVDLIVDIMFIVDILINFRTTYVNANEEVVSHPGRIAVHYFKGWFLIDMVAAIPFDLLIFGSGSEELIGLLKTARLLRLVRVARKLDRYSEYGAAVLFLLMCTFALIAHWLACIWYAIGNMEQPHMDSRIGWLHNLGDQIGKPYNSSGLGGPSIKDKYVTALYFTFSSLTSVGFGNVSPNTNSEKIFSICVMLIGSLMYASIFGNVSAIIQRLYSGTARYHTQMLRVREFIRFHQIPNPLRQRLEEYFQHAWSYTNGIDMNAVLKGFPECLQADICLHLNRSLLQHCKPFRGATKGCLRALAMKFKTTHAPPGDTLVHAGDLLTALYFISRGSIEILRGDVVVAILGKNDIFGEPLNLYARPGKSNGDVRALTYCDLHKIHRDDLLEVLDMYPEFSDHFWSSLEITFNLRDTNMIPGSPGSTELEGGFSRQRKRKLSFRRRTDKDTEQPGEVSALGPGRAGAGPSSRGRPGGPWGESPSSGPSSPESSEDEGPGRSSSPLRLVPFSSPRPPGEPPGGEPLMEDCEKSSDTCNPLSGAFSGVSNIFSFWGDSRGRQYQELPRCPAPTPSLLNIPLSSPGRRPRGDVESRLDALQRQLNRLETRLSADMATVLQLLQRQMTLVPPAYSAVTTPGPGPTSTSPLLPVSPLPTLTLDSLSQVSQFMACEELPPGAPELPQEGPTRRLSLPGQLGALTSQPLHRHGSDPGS
Chain of human GnRHR (P30968 whole entry): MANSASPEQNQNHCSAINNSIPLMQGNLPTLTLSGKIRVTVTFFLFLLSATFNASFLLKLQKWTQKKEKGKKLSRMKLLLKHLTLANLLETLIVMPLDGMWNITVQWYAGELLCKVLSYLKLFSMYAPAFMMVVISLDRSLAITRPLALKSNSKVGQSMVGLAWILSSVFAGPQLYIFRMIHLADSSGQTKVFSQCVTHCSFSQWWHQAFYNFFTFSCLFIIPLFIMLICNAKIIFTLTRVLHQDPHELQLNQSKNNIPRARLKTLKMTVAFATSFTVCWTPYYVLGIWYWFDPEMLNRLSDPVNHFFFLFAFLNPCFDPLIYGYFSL

SMILES	Papp A→B at 120 min [2] [nm/s]	Papp B→A at 120 min [2] [nm/s]	Residual content at 60 min [3] [%]	CLint scaled [3] [L/h/kg]	half-life [3] [h]	microsomal CLint [3] [µL/min/mg]	CLint scaled [4] [L/h/kg]	half-life [4] [h]	Residual content at 60 min [4] [%]	microsomal CLint [4] [µL/min/mg]	also measured
CONC(=O)Nc1ccc(-c2sc3c(c2CN(C)CCOC(F)(F)F)c(=O)n(-c2ccc(OC)nn2)c(=O)n3Cc2c(F)cccc2F)cc1 [Compound 1]	–	–	–	–	–	–	–	–	–	–	T1/2 ([1]; i.g 12 mg/kg): 4.86 ± 3.05 h; Tmax ([1]; i.g 12 mg/kg): 1.13 ± 0.63 h; F (absolute bioavailability) ([1]; i.g 12 mg/kg vs i.v 1 mg/kg): 44.7%; T1/2 ([1]; i.v 1 mg/kg): 2.79 ± 0.87 h; AUC(0-t) [1, 6]: 0.992 ± 0.226 µg·h/mL; C0 [1, 6]: 2.83 ± 0.454 µg/mL; MRT last [1, 6]: 0.539 ± 0.041 h; AUC(0-t) [1, 7]: 5.32 ± 1.21 µg·h/mL; Cmax [1, 7]: 0.664 ± 0.123 µg/mL; MRT last [1, 7]: 6.02 ± 0.93 h
CONC(=O)Nc1ccc(-c2sc3c(c2CN(C)C)c(=O)n(-c2cccc(OC(F)F)c2F)c(=O)n3Cc2c(F)cccc2F)cc1 [Compound 3]	1.26	180	34.5	3.76	0.663	34.8	1.05	1.19	55.5	19.4	AUC(0-t) [1, 8]: 0.271 ± 0.049 µg·h/mL; C0 [1, 8]: 0.198 ± 0.004 µg/mL; MRT last [1, 8]: 3.83 ± 0.63 h; half-life [1, 8]: 4.34 ± 1 h; AUC(0-t) [1, 9]: 0.596 ± 0.231 µg·h/mL; Cmax [1, 9]: 0.0827 ± 0.0101 µg/mL; MRT last [1, 9]: 7.3 ± 1.13 h; half-life [1, 9]: 4.11 h; bioavailability [1, 10]: 18.3%; Tmax ([1]; male, Sprague-Dawley (SD), rat, plasma, po, i.g 12 mg/kg, read-out: Tmax): 6 ± 2.83 h
CONC(=O)Nc1ccc(-c2oc3c(c2CN(C)C)c(=O)n(-c2ccc(OC)nn2)c(=O)n3Cc2c(F)cccc2F)cc1 [Compound 4]	0.933	294	89.9	< 0.81	> 3.1	< 7.5	< 0.405	> 3.1	104	< 7.5	efflux ratio at 120 min ([2]; Caco-2, read-out: Efflux ratio): 316; Clearance in the SD rat liver microsome (in words) ([3]; SD rat liver microsome): low clearance; IC50 (human GnRHR; read-out: Functional IC50): 0.012 µM; IC90 (human GnRHR; read-out: Functional IC90): 0.0923 µM; IC50 ([5]; CHO cells stably expressing human hERG potassium channel): 4.44 µM; Inhibitory activity on the human hERG potassium channel compared with Relugolix ([5]; in words, vs Relugolix): equal to or less than that of Relugolix
CNc1ccc(-n2c(=O)c3c(CN(C)C)c(-c4ccc(NC(=O)NOC)cc4)sc3n(Cc3c(F)cccc3F)c2=O)nn1 [Compound 6]	0.504	5.04	57.1	2.09	1.19	19.4	< 0.405	> 3.1	95.9	< 7.5	–
CONC(=O)Nc1ccc(-c2sc3c(c2CN(C)C)c(=O)n(-c2ccc(OC)nn2)c(=O)n3Cc2c(F)cccc2F)cc1 [Relugolix, reference compound]	0.0716	138	58.0	–	1.41	16.4	–	3.98	86.4	5.8	CLint(liver) [3]: 1.77 L/h/kg; CLint(liver) [4]: 0.313 L/h/kg; T1/2 ([1]; i.g 12 mg/kg): 3.88 ± 0.57 h; bioavailability [1, 10]: 5.74%

Now from value to compound, other results behind:

Papp A→B at 120 min [2] [nm/s]	Papp B→A at 120 min [2] [nm/s]	Residual content at 60 min [3] [%]	CLint scaled [3] [L/h/kg]	half-life [3] [h]	microsomal CLint [3] [µL/min/mg]	CLint scaled [4] [L/h/kg]	half-life [4] [h]	Residual content at 60 min [4] [%]	microsomal CLint [4] [µL/min/mg]	SMILES	also measured
0.11	45.8	98.7	< 0.81	> 3.1	< 7.5	< 0.405	> 3.1	89.0	< 7.5	CONC(=O)Nc1ccc(-c2sc3c(c2CN(C)C)c(=O)n(-c2ccc(OC)nn2)c(=O)n3Cc2c(F)cccc2C(F)(F)F)cc1 [Compound 5]	–
0.101	156	47.0	–	0.917	25.2	–	2.82	75.5	8.2	COc1ccc(-n2c(=O)c3c(CN(C)C)c(-c4ccc(NC(=O)NOCC(F)F)cc4)sc3n(Cc3c(F)cccc3F)c2=O)nn1 [Compound 7]	CLint(liver) [3]: 2.72 L/h/kg; CLint(liver) [4]: 0.443 L/h/kg
